Test system: U-251 glioblastoma viability, Alamar Blue, 8-48 h
Assay: cytotoxicity in U-251 CNS tumor cells – cell-based, Alamar Blue fluorescence, 8/24/48 h, dry powder, HRAS target identification, dose response (AID 720605)

CC(C)(C)OC(=O)NCCOCCOCCOc1ccc(N(C(=O)CCl)C(C(=O)NCCc2ccccc2)c2cccs2)cc1Cl (stereo not given)
AC50 (measured here: 8 h treatment): 297 nM | AC50 (measured here: 24 h treatment): 229 nM | AC50 (measured here: 48 h treatment): 330 nM

COc1ccc(N(C(=O)CCl)C(C(=O)NCCc2ccccc2)c2cccs2)cc1Cl (stereo not given)
AC50 (measured here: 8 h treatment): 66.3 nM | AC50 (measured here: 24 h treatment): 54.3 nM | AC50 (measured here: 48 h treatment): 51 nM

Cc1onc(C(=O)N2CCN(C(c3ccc(Cl)cc3)c3ccc(Cl)cc3)CC2)c1[N+](=O)[O-]
AC50 (measured here: 8 h treatment): 383 nM | AC50 (measured here: 24 h treatment): 359 nM | AC50 (measured here: 48 h treatment): 293 nM

C#CCCCC(=O)NCCOCCOCCOc1ccc(N(C(=O)CCl)C(C(=O)NCCc2ccccc2)c2cccs2)cc1Cl (stereo not given)
AC50 (measured here: 8 h treatment): 1990 nM | AC50 (measured here: 24 h treatment): 920 nM | AC50 (measured here: 48 h treatment): 855 nM

COC(=O)c1ccc([C@@H]2c3[nH]c4ccccc4c3C[C@@H](C(=O)OC)N2C(=O)CCl)cc1
AC50 (measured here: 8 h treatment): 14.4 nM | AC50 (measured here: 24 h treatment): 42.7 nM | AC50 (measured here: 48 h treatment): 45.4 nM

Source: PubChem BioAssay AID720605 (Broad Institute, 2013)
